Test results as given in patent US9738655B2, “Tetrahydroisoquinolines containing substituted azoles as factor XIa inhibitors” (BRISTOL-MYERS SQUIBB COMPANY, priority 2013, dated 2017).
Counter-ions that a name gives are not always drawn. Like-named read-outs stand apart in the source and are kept apart here.

Assays:
[1] = biological target: purified human plasma kallikrein (Homo sapiens (Human), UniProt P03952); assay: Plasma kallikrein enzyme inhibition assay (chromogenic substrate S-2302); assay type: biochemical
[2] = biological target: purified human Factor XIa (Homo sapiens (Human), UniProt P03951); assay: Factor XIa enzyme inhibition assay (chromogenic substrate S-2366)
Procedure: The effectiveness of compounds of the present invention as inhibitors of the coagulation Factors XIa, VIIa, IXa, Xa, XIIa, plasma kallikrein or thrombin, can be determined using a relevant purified serine protease, respectively, and an appropriate synthetic substrate. The rate of hydrolysis of the chromogenic or fluorogenic substrate by the relevant serine protease was measured both in the absence and presence of compounds of the present invention. […] A decrease in the rate of absorbance or fluorescence change in the presence of inhibitor is indicative of enzyme inhibition. […] The results of this assay are expressed as the inhibitory constant, Ki.
Values of Ki were determined by allowing the protease to react with the substrate in the presence of the inhibitor.

[3] = read-out: Factor XIa Ki, measured at 25° C.
[4] = measured at 25° C. (no asterisk)
[5] = measured at 25° C. (no asterisk), TFA salt

purified human Factor XIa, sequence (P03951 388-625): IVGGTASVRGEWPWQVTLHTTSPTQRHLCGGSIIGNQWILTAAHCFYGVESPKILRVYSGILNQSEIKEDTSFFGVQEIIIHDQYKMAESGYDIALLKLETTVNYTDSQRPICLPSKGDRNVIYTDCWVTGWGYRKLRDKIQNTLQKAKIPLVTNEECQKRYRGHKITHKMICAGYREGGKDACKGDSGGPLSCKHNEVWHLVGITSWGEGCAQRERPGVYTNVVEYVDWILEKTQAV
purified human Factor XIa, sequence (P03951 19-387 partner): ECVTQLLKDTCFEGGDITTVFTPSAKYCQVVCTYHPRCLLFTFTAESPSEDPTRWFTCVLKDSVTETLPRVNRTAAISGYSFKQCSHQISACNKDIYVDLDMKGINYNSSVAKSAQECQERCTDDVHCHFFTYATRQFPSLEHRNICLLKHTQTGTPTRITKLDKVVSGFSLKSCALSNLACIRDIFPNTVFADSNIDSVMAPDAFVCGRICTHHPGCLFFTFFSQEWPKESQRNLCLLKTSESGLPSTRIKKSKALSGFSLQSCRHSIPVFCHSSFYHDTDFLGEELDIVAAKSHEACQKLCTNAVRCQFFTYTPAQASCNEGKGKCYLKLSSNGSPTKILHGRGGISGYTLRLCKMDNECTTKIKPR
purified human plasma kallikrein, sequence (P03952 391-638): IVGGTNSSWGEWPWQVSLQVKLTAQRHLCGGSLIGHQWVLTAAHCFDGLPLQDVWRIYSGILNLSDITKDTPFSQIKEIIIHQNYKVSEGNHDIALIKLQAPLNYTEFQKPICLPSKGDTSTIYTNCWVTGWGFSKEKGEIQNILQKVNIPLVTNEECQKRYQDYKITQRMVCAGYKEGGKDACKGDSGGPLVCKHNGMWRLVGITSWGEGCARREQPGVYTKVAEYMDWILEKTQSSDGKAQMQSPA
purified human plasma kallikrein, sequence (P03952 20-390 partner): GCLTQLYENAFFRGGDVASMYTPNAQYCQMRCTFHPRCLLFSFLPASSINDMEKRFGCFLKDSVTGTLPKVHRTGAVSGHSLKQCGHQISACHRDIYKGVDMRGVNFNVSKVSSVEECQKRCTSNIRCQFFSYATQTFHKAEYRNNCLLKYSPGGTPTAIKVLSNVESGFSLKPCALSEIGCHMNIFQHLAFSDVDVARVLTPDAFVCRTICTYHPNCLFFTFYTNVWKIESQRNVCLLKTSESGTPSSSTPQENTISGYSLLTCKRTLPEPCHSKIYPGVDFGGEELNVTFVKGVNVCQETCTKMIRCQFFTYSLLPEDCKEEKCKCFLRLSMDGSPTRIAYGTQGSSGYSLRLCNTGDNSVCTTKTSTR

Compound	Ki ([1]; measured at 37° C. (*))	Ki [2, 3]	Ki [2]	Ki [1, 4]	other results
O=C(Nc1ccc2cnccc2c1)C1c2cccc(-c3cncnc3)c2CCN1C(=O)c1cn(-c2cccc(Cl)c2F)nn1 (stereo not shown) [Example 130, 2-(1-(3-chloro-2-fluorophenyl)-1H-1,2,3-triazol-4-carbonyl)-N-(isoquinolin-6-yl)-5-(pyrimidin-5-yl)-1,2,3,4-tetrahydroisoquinoline-1-carboxamide, TFA salt]	126 nM	28.3 nM			
COC1CCN(c2cccc3c2CCN(C(=O)[C@H]2CC(c4cccc(Cl)c4F)=NO2)[C@@H]3C(=O)Nc2ccc(C(=O)O)cc2F)CC1 (single isomer, unassigned) [Example 243, TFA salt]	37.6 nM		< 5 nM		
COc1ncccc1-c1cccc2c1CCN(C(=O)c1cn(-c3cccc(Cl)c3F)nn1)C2C(=O)Nc1ccc(C(=O)O)cc1 (stereo not shown) [Example 153, 4-(2-(1-(3-chloro-2-fluorophenyl)-1H-1,2,3-triazole-4-carbonyl)-5-(2-methoxypyridin-3-yl)-1,2,3,4-tetrahydroisoquinoline-1-carboxamido)benzoic acid, TFA salt]		5.73 nM		62.2 nM	
CN1CCN(c2cccc3c2CCN(C(=O)C2CC(c4cccc(Cl)c4F)=NO2)C3C(=O)Nc2ccc(C(=O)O)cc2)CC1=O (single isomer, unassigned) [Example 281, 4-(2-(3-(3-chloro-2-fluorophenyl)-4,5-dihydroisoxazole-5-carbonyl)-5-(4-methyl-3-oxopiperazin-1-yl)-1,2,3,4-tetrahydroisoquinoline-1-carboxamido)benzoic acid, TFA]					Ki ([1]; measured at 25° C. (no asterisk), TFA): 79 nM; Ki ([2]; read-out: Factor XIa Ki, measured at 25° C., TFA): 12.8 nM
CN(C)C(=O)C1CCN(c2cccc3c2CCN(C(=O)C2CC(c4cccc(Cl)c4F)=NO2)C3C(=O)Nc2ccc(C(=O)O)cc2)CC1 (single isomer, unassigned) [Example 278, 4-(2-(3-(3-chloro-2-fluorophenyl)-4,5-dihydroisoxazole-5-carbonyl)-5-(4-(dimethylcarbamoyl)piperidin-1-yl)-1,2,3,4-tetrahydroisoquinoline-1-carboxamido)benzoic acid, TFA salt]		< 5 nM			Ki [1, 5]: 1.98 nM
COC1CCN(c2cccc3c2CCN(C(=O)c2cnn(-c4cccc(Cl)c4F)c2)C3C(=O)Nc2ccc(C(=O)O)cc2)CC1 (racemic) [Example 252, 4-(2-(1-(3-chloro-2-fluorophenyl)-1H-pyrazole-4-carbonyl)-5-(4-methoxypiperidin-1-yl)-1,2,3,4-tetrahydroisoquinoline-1-carboxamido)benzoic acid, TFA salt]			< 5 nM	42.8 nM	
CN(C)C(=O)C1CCN(c2cccc3c2CCN(C(=O)c2cn(-c4cccc(Cl)c4F)nn2)[C@H]3C(=O)Nc2ccc(C(=O)O)cc2)CC1 (single isomer, unassigned) [Example 57, TFA salt]		33.1 nM		276 nM	
N#Cc1cccc2c1CCN(C(=O)c1cn(-c3cccc(Cl)c3F)nn1)C2C(=O)Nc1ccc(C(=O)O)cc1 (stereo not shown) [Example 108, 4-(2-(1-(3-Chloro-2-fluorophenyl)-1H-1,2,3-triazole-4-carbonyl)-5-cyano-1,2,3,4-tetrahydroisoquinoline-1-carboxamido)benzoic acid]		48.8 nM		50 nM	
COC1CCN(c2cccc3c2CCN(C(=O)[C@H]2CC(c4cccc(Cl)c4F)=NO2)[C@H]3C(=O)Nc2ccc(C(=O)O)cc2F)CC1 (single isomer, unassigned) [Example 244, TFA salt]	635 nM		38.7 nM		
COC1CCN(c2cccc3c2CCN(C(=O)c2cn(-c4cccc(Cl)c4F)nn2)C3C(=O)Nc2ccc3c(c2)CC(=O)N3)CC1 (stereo not shown) [Example 190, 2-(1-(3-Chloro-2-fluorophenyl)-1H-1,2,3-triazole-4-carbonyl)-5-(4-methoxypiperidin-1-yl)-N-(2-oxoindolin-5-yl)-1,2,3,4-tetrahydroisoquinoline-1-carboxamide, TFA salt]		98.1 nM		163 nM	
O=C(Nc1ccc(-c2ncc[nH]2)cc1)[C@H]1c2cccc(-c3cncnc3)c2CCN1C(=O)[C@H]1CC(c2cccc(Cl)c2F)=NO1 [Example 135, (R)-N-(4-(1H-imidazol-2-yl)phenyl)-2-((R)-3-(3-chloro-2-fluorophenyl)-4,5-dihydroisoxazole-5-carbonyl)-5-(pyrimidin-5-yl)-1,2,3,4-tetrahydroisoquinoline-1-carboxamide TFA salt]	399 nM	< 5 nM			
O=C(O)c1ccc(NC(=O)[C@H]2c3cccc(N4CCN(CC(F)(F)F)CC4)c3CCN2C(=O)[C@H]2CC(c3cccc(Cl)c3F)=NO2)cc1 [Example 231, 4-((R)-2-((R)-3-(3-Chloro-2-fluorophenyl)-4,5-dihydroisoxazole-5-carbonyl)-5-(4-(2,2,2-trifluoroethyl)piperazin-1-yl)-1,2,3,4-tetrahydroisoquinoline-1-carboxamido)benzoic acid, 2 TFA salt]	1290 nM	136 nM			
COC(=O)c1ccc(NC(=O)[C@@H]2c3cccc(-c4cncnc4)c3CCN2C(=O)[C@H]2CC(c3cccc(Cl)c3F)=NO2)cc1 [Example 28, Methyl 4-((S)-2-((R)-3-(3-chloro-2-fluorophenyl)-4,5-dihydroisoxazole-5-carbonyl)-5-(pyrimidin-5-yl)-1,2,3,4-tetrahydroisoquinoline-1-carboxamido)benzoate]	55.8 nM	< 5 nM			
COC1CCN(c2cccc3c2CCN(C(=O)c2coc(-c4cccc(Cl)c4F)n2)C3C(=O)Nc2ccc(C(=O)O)cc2)CC1 (racemic) [Example 310, 4-(2-(2-(3-chloro-2-fluorophenyl)oxazole-4-carbonyl)-5-(4-methoxypiperidin-1-yl)-1,2,3,4-tetrahydroisoquinoline-1-carboxamido)benzoic acid, TFA salt]			82 nM	610 nM	
COCCOc1cccc2c1CCN(C(=O)c1cn(-c3cccc(Cl)c3F)nn1)C2C(=O)Nc1ccc(C(=O)O)cc1 (stereo not shown) [Example 113, 4-(2-(1-(3-Chloro-2-fluorophenyl)-1H-1,2,3-triazole-4-carbonyl)-5-(2-methoxyethoxy)-1,2,3,4-tetrahydroisoquinoline-1-carboxamido)benzoic acid]			< 5 nM	11.9 nM	
O=C(O)c1ccc(NC(=O)C2c3cccc(Cl)c3CCN2C(=O)c2cn(-c3cccc(Cl)c3F)nn2)cc1 (stereo not shown) [Example 194, 4-(5-Chloro-2-(1-(3-chloro-2-fluorophenyl)-1H-1,2,3-triazole-4-carbonyl)-1,2,3,4-tetrahydroisoquinoline-1-carboxamido)benzoic acid]			57.1 nM	41.5 nM	
CN1CCN(c2cccc3c2CCN(C(=O)C2CC(c4cccc(Cl)c4F)=NO2)C3C(=O)Nc2ccc(C(=O)O)cc2)CC1=O (single isomer, unassigned) [Example 283, 4-(2-(3-(3-chloro-2-fluorophenyl)-4,5-dihydroisoxazole-5-carbonyl)-5-(4-methyl-3-oxopiperazin-1-yl)-1,2,3,4-tetrahydroisoquinoline-1-carboxamido)benzoic acid, TFA salt]					Ki [1, 5]: 75.3 nM; Ki ([2]; read-out: Factor XIa Ki, measured at 25° C., TFA salt): 8.27 nM
O=C(O)c1ccc(NC(=O)C2c3cccc(-c4cnc(O)nc4)c3CCN2C(=O)c2cn(-c3cccc(Cl)c3F)nn2)cc1 (stereo not shown) [Example 34, 4-(2-(1-(3-chloro-2-fluorophenyl)-1H-1,2,3-triazole-4-carbonyl)-5-(2-hydroxypyrimidin-5-yl)-1,2,3,4-tetrahydroisoquinoline-1-carboxamido)benzoic acid]			< 5 nM	0.46 nM	
CC(C)c1nnc2n1CCN(c1cccc3c1CCN(C(=O)[C@H]1CC(c4cccc(Cl)c4F)=NO1)[C@@H]3C(=O)Nc1ccc(C(=O)O)cc1)C2 [Example 336, 4-((S)-2-((R)-3-(3-Chloro-2-fluorophenyl)-4,5-dihydroisoxazole-5-carbonyl)-5-(3-isopropyl-5,6-dihydro-[1,2,4]triazolo[4,3-a]pyrazin-7(8H)-yl)-1,2,3,4-tetrahydroisoquinoline-1-carboxamido)benzoic acid, TFA salt]	1.4 nM	< 5 nM			
Cn1ncnc1-c1cccc2c1CCN(C(=O)c1cn(-c3cccc(Cl)c3F)nn1)C2C(=O)Nc1ccc(C(=O)O)cc1 (stereo not shown) [Example 245, 4-(2-(1-(3-Chloro-2-fluorophenyl)-1H-1,2,3-triazole-4-carbonyl)-5-(1-methyl-1H-1,2,4-triazol-5-yl)-1,2,3,4-tetrahydroisoquinoline-1-carboxamido)benzoic acid, TFA salt]	68.2 nM	< 5 nM			
COC1CCN(c2cccc3c2CCN(C(=O)c2cn(-c4cccc(Cl)c4F)nn2)C3C(=O)Nc2ccc(C(=O)O)cc2)CC1 (stereo not shown) [Example 215, 4-(2-(1-(3-chloro-2-fluorophenyl)-1H-1,2,3-triazole-4-carbonyl)-5-(4-methoxypiperidin-1-yl)-1,2,3,4-tetrahydroisoquinoline-1-carboxamido)benzoic acid, TFA salt]		< 5 nM		20.2 nM	
4-(2-(5-amino-1-(3-chloro- 2-fluorophenyl)-1H- pyrazole-4-carbonyl)-5-(4- (pyrrolidin-1- yl)piperidin-1-yl)-1,2,3,4- tetrahydroisoquinoline-1- carboxamido)benzoic acid, 3TFA salt [Example 213]				12.2 nM	Ki ([2]; read-out: Factor XIa Ki): < 5 nM
CN(C)C1CCN(c2cccc3c2CCN(C(=O)c2cn(-c4cccc(Cl)c4F)nn2)[C@H]3C(=O)Nc2ccc(-c3cn[nH]c3)cc2)CC1 [Example 103, (R)-N-(4-(1H-Pyrazol-4-yl)phenyl)-2-(1-(3-chloro-2-fluorophenyl)-1H-1,2,3-triazole-4-carbonyl)-5-(4-(dimethylamino)piperidin-1-yl)-1,2,3,4-tetrahydroisoquinoline-1-carboxamide, bis-TFA salt]		17.9 nM		34 nM	
